Laboratory results published in US6177438A, “Morphinan derivatives and pharmaceutical use thereof” (priority 1993, dated 2001).
Where a name gives a salt, the structure may show the parent alone.

What was measured:
[1] = tested on: acetic acid-induced writhing in ddy mice; experiment: animal or person; format: in vivo, 5 week old ddy mice; conditions: Mus musculus, sc, s.c. 15 minutes before acetic acid, read-out: ED50
Procedure: 5 week old ddy mice were used in this test. After intraperitoneal administration of 0.1 ml of 0.6% aqueous acetic acid per 10 g of body weight, the number of writhing reactions that occurred in 10 minutes starting 10 minutes after administration was evaluated for the indicator. The test drug was administered subcutaneously into the backs of the animals 15 minutes before administration of acetic acid.

[2] = Diuretic action (urine output for 5 hours after physiological saline loading in rats); format: in vivo, male Wistar rats; conditions: Rattus norvegicus, sc, 5 hours after saline 20 ml/kg p.o.; for ED (200% urine output): dose giving urine output of 200 (non-dosed group = 100); for ED (500% urine output): dose giving urine output of 500 (non-dosed group = 100)
Procedure: 7-8 week old male Wistar rats were used in this test after prohibiting from drinking water for 1 hour before the start of testing. After discharging any urine accumulated in the bladder by gently stimulating the lower abdomens of the animals, the drug was administered subcutaneously. After 30 minutes, the animals were then forcibly given 20 ml/kg of physiological saline orally. The animals were placed in metabolic cages immediately after administration of the drug (2 animals/cage) and urine output for 5 hours after loading with physiological saline was measured. Drug efficacy was expressed in the form of those doses resulting in urine outputs of 200 and 500, respectively, when the urine output of a non-dosed group was taken to be 100. Those doses were expressed as the ED200 and ED500 values, respectively.

## CN(C(=O)/C=C/C1CCCCC1)[C@H]1CC[C@@]2(O)[C@H]3Cc4ccc(O)c5c4[C@@]2(CCN3CC2CC2)[C@H]1O5 [Compound 50, 17-cyclopropylmethyl-4,5α-epoxy-3,14β-dihydroxy-6α-(N-methyl-trans-3-cyclohexylacrylamido)morphinan.cndot.hydrochloride]
[1]
  ED50: 0.011 mg/kg
[2]
  ED (200% urine output): 0.0021 mg/kg
  ED (500% urine output): 0.0325 mg/kg

## CN(C(=O)Cc1cccc(F)c1)[C@H]1CC[C@@]2(O)[C@H]3Cc4ccc(O)c5c4[C@@]2(CCN3CC2CC2)[C@H]1O5 [Compound 37, 17-cyclopropylmethyl-3,14β-dihydroxy-4,5α-epoxy-6α-(N-methyl-3-fluorophenylacetamido)morphinan.cndot.hydrochloride]
[1]
  ED50: 0.0041 mg/kg
[2]
  ED (200% urine output): 0.365 mg/kg

## CN(C(=O)Cc1csc2ccccc12)[C@H]1CC[C@@]2(O)[C@H]3Cc4ccc(O)c5c4[C@@]2(CCN3CC2CC2)[C@H]1O5 [Compound 107, 17-cyclopropylmethyl-3,14β-dihydroxy-4,5α-epoxy-6α-(N-methyl-3-benzo[b]thienylacetamido)morphinan.cndot.hydrochloride]
[1]
  ED50: 0.023 mg/kg
[2]
  ED (200% urine output): 0.0061 mg/kg
  ED (500% urine output): 0.2 mg/kg

## CN(C(=O)/C=C/c1ccc(Cl)c(Cl)c1)[C@H]1CC[C@@]2(O)[C@H]3Cc4ccc(O)c5c4[C@@]2(CCN3CC2CC2)[C@H]1O5 [Compound 86, 17-cyclopropylmethyl-3,14β-dihydroxy-4,5α-epoxy-6α-(N-methyl-3,4-dichlorocinnamamido)morphinan.cndot.hydrochloride]
[1]
  ED50: 0.0347 mg/kg
[2]
  ED (200% urine output): 0.0057 mg/kg
  ED (500% urine output): 0.229 mg/kg

## CN(C(=O)/C=C/c1ccc(Cl)c(Cl)c1)[C@@H]1CC[C@@]2(O)[C@H]3Cc4ccc(O)c5c4[C@@]2(CCN3CC2CC2)[C@H]1O5 [Compound 179, 17-cyclopropylmethyl-3,14β-dihydroxy-4,5α-epoxy-6β-(N-methyl-3,4-dichlorocinnamamido)morphinan hydrochloride]
[1]
  ED50: 0.0028 mg/kg

## CN(C(=O)/C=C/c1ccsc1)[C@@H]1CC[C@@]2(O)[C@H]3Cc4ccc(O)c5c4[C@@]2(CCN3CC2CC2)[C@H]1O5 [Compound 71, 17-cyclopropylmethyl-3,14β-dihydroxy-4,5α-epoxy-6β-[N-methyl-trans-3-(3-thienyl)acrylamido]morphinan.cndot.methanesulfonate]
[1]
  ED50: 0.0042 mg/kg

## CN(C(=O)/C=C/c1ccccc1C(F)(F)F)[C@@H]1CC[C@@]2(O)[C@H]3Cc4ccc(O)c5c4[C@@]2(CCN3CC2CC2)[C@H]1O5 [Compound 72, 17-cyclopropylmethyl-3,14β-dihydroxy-4,5α-epoxy-6β-(N-methyl-2-trifluoromethylcinnamamido)morphinan.cndot.hydrochloride]
[1]
  ED50: 0.18 mg/kg

## COCCOC(=O)N(C)[C@@H]1CC[C@@]2(O)[C@H]3Cc4ccc(O)c5c4[C@@]2(CCN3CC2CC2)[C@H]1O5 [Compound 67, 17-cyclopropylmethyl-3,14β-dihydroxy-4,5α-epoxy-6β-(N-methyl-2-methoxyethoxycarbamido)morphinan.cndot.tartrate]
[1]
  ED50: 0.36 mg/kg

## Cc1ccc(C#CC(=O)N(C)[C@H]2CC[C@@]3(O)[C@H]4Cc5ccc(O)c6c5[C@@]3(CCN4CC3CC3)[C@H]2O6)cc1.Cl [Compound 183, 17-cyclopropylmethyl-3,14β-dihydroxy-4,5α-epoxy-6α-[N-methyl-3-(4-methylphenyl)propiolamido]morphinan hydrochloride]
[1]
  ED50: 0.013 mg/kg

## COc1ccc2c3c1O[C@H]1[C@H](N(C)C(=O)/C=C/c4ccoc4)CC[C@@]4(O)[C@@H](C2)N(CC2CC2)CC[C@]314 [Compound 217, 17-cyclopropylmethyl-4,5α-epoxy-14β-hydroxy-3-methoxy-6β-[N-methyl-trans-3-(3-furan)acrylamido]morphinan hydrochloride]
[1]
  ED50: 0.018 mg/kg

## CN(C(=O)CCC1CCCC1)[C@H]1CC[C@@]2(O)[C@H]3Cc4ccc(O)c5c4[C@@]2(CCN3CC2CC2)[C@H]1O5 [Compound 48, 17-cyclopropylmethyl-4,5α-epoxy-3,14β-dihydroxy-6α-(N-methyl-3-cyclopentylpropionamido)morphinan.cndot.tartrate]
[1]
  ED50: 0.019 mg/kg

## CC(=O)O[C@@]12CC[C@@H](N(C)C(=O)/C=C/c3ccccc3)[C@@H]3Oc4c(O)ccc5c4[C@@]31CCN(CC1CC1)[C@@H]2C5 [Compound 144, 17-Cyclopropylmethyl-3-hydroxy-14β-acetoxy-4,5α-epoxy-6β-(N-methylcinnamamido)morphinan.cndot.tartrate]
[1]
  ED50: 0.024 mg/kg

## CN(C(=O)C#Cc1ccoc1)[C@H]1CC[C@@]2(O)[C@H]3Cc4ccc(O)c5c4[C@@]2(CCN3CC2CC2)[C@H]1O5.O=C(O)C(O)C(O)C(=O)O [Compound 188, 17-cyclopropylmethyl-3,14β-dihydroxy-4,5α-epoxy-6α-[N-methyl-(3-furyl)propiolamido]morphinan tartrate]
[1]
  ED50: 0.002 mg/kg

## CN(C(=O)CCC1CCCC1)[C@@H]1CC[C@@]2(O)[C@H]3Cc4ccc(O)c5c4[C@@]2(CCN3CC2CC2)[C@H]1O5 [Compound 64, 17-cyclopropylmethyl-3,14β-dihydroxy-4,5α-epoxy-6β-(N-methyl-3-cyclopentylpropionamido)morphinan.cndot.tartrate]
[1]
  ED50: 0.097 mg/kg

## CN(C(=O)/C=C\c1ccoc1)[C@@H]1CC[C@@]2(O)[C@H]3Cc4ccc(O)c5c4[C@@]2(CCN3CC2CC2)[C@H]1O5.O=C(O)C(O)C(O)C(=O)O (relative stereo) [Compound 174, 17-cyclopropylmethyl-3,14β-dihydroxy-4,5α-epoxy-6β-[N-methyl-cis-3-(3-furyl)acrylamido]morphinan tartrate]
[1]
  ED50: 0.16 mg/kg

## CCN(C(=O)Cc1ccc(Cl)c(Cl)c1)[C@@H]1CC[C@@]2(O)[C@H]3Cc4ccc(O)c5c4[C@@]2(CCN3CC2CC2)[C@H]1O5 [Compound 54, 17-cyclopropylmethyl-4,5α-epoxy-3,14β-dihydroxy-6β-(N-ethyl-3,4-dichlorophenylacetoamido)morphinan.cndot.hydrochloride]
[1]
  ED50: 0.72 mg/kg

## CN(C(=O)CCCCCc1ccccc1)[C@@H]1CC[C@@]2(O)[C@H]3Cc4ccc(O)c5c4[C@@]2(CCN3CC2CC2)[C@H]1O5 [Compound 202, 17-cyclopropylmethyl-3,14β-dihydroxy-4,5α-epoxy-6β-(N-methyl-6-phenylhexanoamido)morphinan hydrochloride]
[1]
  ED50: 0.083 mg/kg

## CN(C(=O)Cc1cccc(N=C=S)c1)[C@H]1CC[C@@]2(O)[C@H]3Cc4ccc(O)c5c4[C@@]2(CCN3CC2CC2)[C@H]1O5 [Compound 149, 17-cyclopropylmethyl-3,14β-dihydroxy-4,5α-epoxy-6α-(N-methyl-3-isothiocyanatophenylacetamido)morphinanan.cndot.methanesulfonate]
[1]
  ED50: 0.013 mg/kg

## CN(C(=S)NCc1ccccc1)[C@@H]1CC[C@@]2(O)[C@H]3Cc4ccc(O)c5c4[C@@]2(CCN3CC2CC2)[C@H]1O5 [Compound 134, 17-cyclopropylmethyl-3,14β-dihydroxy-4,5α-epoxy-6β-(N-methyl-N'-benzylthioureido)morphinan.cndot.tartrate]
[1]
  ED50: 0.15 mg/kg

## C/C(=C\C(=O)N(C)[C@@H]1CC[C@@]2(O)[C@H]3Cc4ccc(O)c5c4[C@@]2(CCN3CC2CC2)[C@H]1O5)c1ccccc1 [Compound 162, 17-cyclopropylmethyl-3,14β-dihydroxy-4,5α-epoxy-6β-(N-methyl-γ-methylcinnamamido)morphinan tartrate]
[1]
  ED50: 0.018 mg/kg

## CN(C(=S)NCc1ccccc1)[C@H]1CC[C@@]2(O)[C@H]3Cc4ccc(O)c5c4[C@@]2(CCN3CC2CC2)[C@H]1O5 [Compound 133, 17-cyclopropylmethyl-3,14β-dihydroxy-4,5α-epoxy-6α-(N-methyl-N'-benzylthioureido)morphinan.cndot.tartrate]
[1]
  ED50: 0.044 mg/kg

## CN(C(=O)CCc1cccnc1)[C@H]1CC[C@@]2(O)[C@H]3Cc4ccc(O)c5c4[C@@]2(CCN3CC2CC2)[C@H]1O5 [Compound 41, 17-cyclopropylmethyl-3,14β-dihydroxy-4,5α-epoxy-6α-[N-methyl-3-(3-pyridyl)propionamido]morphinan.cndot.tartrate]
[1]
  ED50: 0.39 mg/kg

## CN(C(=O)Cc1cccc2sccc12)[C@H]1CC[C@@]2(O)[C@H]3Cc4ccc(O)c5c4[C@@]2(CCN3CC2CC2)[C@H]1O5 [Compound 106, 17-cyclopropylmethyl-3,14β-dihydroxy-4,5α-epoxy-6α-(N-methyl-4-benzo[b]thienylacetamido)morphinan.cndot.hydrochloride]
[1]
  ED50: 0.25 mg/kg

## CN(C(=O)CCCCc1ccccc1)[C@@H]1CC[C@@]2(O)[C@H]3Cc4ccc(O)c5c4[C@@]2(CCN3CC2CC2)[C@H]1O5 [Compound 203, 17-cyclopropylmethyl-3,14β-dihydroxy-4,5α-epoxy-6β-(N-methyl-5-phenylpentanoamido)morphinan hydrochloride]
[1]
  ED50: 0.38 mg/kg

## COCCOC(=O)N(C)[C@H]1CC[C@@]2(O)[C@H]3Cc4ccc(O)c5c4[C@@]2(CCN3CC2CC2)[C@H]1O5 [Compound 49, 17-cyclopropylmethyl-4,5α-epoxy-3,14β-dihydroxy-6α-(N-methyl-2-methoxyethoxycarbamido)morphinan.cndot.tartrate]
[1]
  ED50: 0.026 mg/kg

## CN(C(=O)CCC1CCCCC1)[C@H]1CC[C@@]2(O)[C@H]3Cc4ccc(O)c5c4[C@@]2(CCN3CC2CC2)[C@H]1O5 [Compound 94, 17-cyclopropylmethyl-3,14β-dihydroxy-4,5α-epoxy-6α-(N-methyl-3-cyclohexylpropionamido)morphinan.cndot.hydrochloride]
[1]
  ED50: 0.013 mg/kg
